Source: patent US20240239790A1, “7-Morpholino-1,6-Naphthyridin-5-yl Derivatives and Pharmaceutical Compositions Thereof Useful as DNA-PK Inhibitor” (adMare Therapeutics Society, priority 2021, published 2024)
Like-named read-outs stand apart in the source and are kept apart here.

Tests used:
[1] = system: pDNA-PK induction in FaDU tumour spheroids; assay: Multicellular tumour spheroid + radiation, pDNA-PK (ser2056) inhibition, immunohistochemical endpoint, FaDU; format: cell-based; conditions: Homo sapiens, 20 Gy
Procedure: (§1) Multicellular tumour spheroids determination of compound inhibition of pDNA-PK induction following radiation. Tumour spheroids were grown to approximately 0.5 mm in diameter and irradiated with 20 Gy in combination with inhibitor test compounds to determine their potency. Inhibitor concentration for 50% reduction in pDNA-PK induction (IC50) was determined via immunohistochemical staining in spheroid cryosections taken 2 hours following radiation. For cell survival endpoint 8 Gy radiation was used and 3 hours following radiation spheroids were dissociated, counted and plated for colony forming endpoint.
Spheroid+radiation pDNA-PK. Radiation: 20 Gy. Drug: serial dilution 5 or 10 μM down to 3.5 nM (11 wells). Spheroids: 3-6 spheroids per well (300-500 μm diameter). 20% 02 and 5% CO2. 96 well plate format. Endpoint: fluorescent immunostain pDNA-PK ser2056 and image on microscope. Analysis: determine EC50 concentrations that decreases pDNA-PK induction by 50% after irradiation.
(§2) Multicellular tumour spheroids were used to determine potency of test compounds in a 3D tissue environment using inhibition of pDNA-PK induction following radiation or cell survival as the endpoint. For the pDNA-PK endpoint HCT116 or FaDU tumour spheroids were grown to approximately 0.5 mm in diameter and irradiated with 20 Gy in combination with inhibitor test compounds to determine their potency. Experiments were carried out in 96 well plates containing 0.7 mls of MEM media containing 10% FBS and 10 mM glucose under 20% O2 & 5% CO2 at 37° C. Following dilution of compounds 1:1000 from DMSO stocks, compounds were serially diluted from 10 μM down to 3.5 nM and 5-10 spheroids added. 96 well plates were constantly stirred to avoid spheroids settling during the course of the experiment. The inhibitor concentration for 50% reduction in pDNA-PK induction (EC50) was determined via immunohistochemical staining in spheroid cryosections taken 2 hours following radiation using anti-pDNA-PK (ser 2056) and fixed immediately in formalin following sectioning. For cell survival endpoint 8 Gy radiation was used and, 3 hours following radiation, spheroids were dissociated, counted and plated for colony forming endpoint. Data presented in the table compound potency as EC50 [μM].

HCT116 tumour spheroids = assay: Spheroid + radiation colony forming cell survival assay (SF), HCT116; format: cell-based; conditions: Homo sapiens, HCT-116, 8 Gy
Procedure: as §1
Spheroid+radiation colony forming cell survival assay (SF). Radiation 8 Gy. Drug: serial dilution 5 μM down to 10 nM (12 wells×2 repeat). Spheroids: 5-10 spheroids per well (300 to 500 μm diameter). HCT116. 5% 02 and 5% CO2. 96 well pate format for assay. Protocol: pre incubate 1 hour with drug, irradiate 8 Gy, post incubate 3 hrs with drug, dissociate spheroids and count cells and plate for colony forming assay. Endpoint: wait 4-7 days and count colonies. Analysis: determine EC50 concentration that increase cell kill by 50% over radiation alone.
as §2

FaDu tumour xenograft = assay: Tumour Growth Delay, FaDu tumour xenograft-bearing animals, compound ± radiation (TGD-ER); format: in vivo; conditions: PO
Procedure: FaDu tumour xenograft-bearing animals were monitored for tumour growth and once average tumour size reached approximately 100-250 mm3, animals were assigned to treatment cohorts using stratified randomization. […]
For BID dosing regimens, at 8 h following the first injection, animals were again administered with test compound at the same dose as their previous administration. Animals were weighed and had tumours measured using calipers three times weekly until the endpoint of maximum tumour volume, 1000 mm3, was reached and animals were euthanized. Tumour volumes were calculated according to the equation L×W^2/2 with the length (mm) being the longer axis of the tumour; in the case that no tumour was palpable, tumour volumes were recorded as 0 mm^3.
Data were calculated as tumour growth normalized to day 0 measurements, with time to tumour doubling determined. Average time to tumour doubling for each group was used to determine a Tumour Growth Delay Enhancement Ratio (TGD-ER): the time to doubling for treatment groups were divided by the time to doubling for irradiation-alone groups to determine group-specific TGD-ER values, and these were assigned scores based on defined response ranges: values>2.5=A, 1-2.5=B, <1=C.

[2] = 2 hours following radiation, 20% O2, Example 9 Study 2, read-out: Spheroid Cell line: FaDU Immunohistochemical endpoint pDNA-PK inhibition EC50
[3] = 2 h, spheroids, 20% O2, Example 8, read-out: Cell line: FaDU Immunohistochemical endpoint pDNA-PK inhibition EC50
[4] = plated 3 hours following radiation, Example 9 Study 2, read-out: Spheroid Cell line: HCT116 Colony forming endpoint Surviving Fraction EC50
[5] = spheroids, 5% O2, concentration that increases cell kill by 50% over radiation alone, Example 8, read-out: Cell line: HCT116 Colony forming endpoint Surviving Fraction EC50

EC50 [1, 2] | EC50 [1, 3] | SMILES | EC50 (HCT116 tumour spheroids; [4]) | EC50 (HCT116 tumour spheroids; [5]) | TGD-ER Range Score (FaDu tumour xenograft; (30 mpk + 2 Gy) Q5D) | TGD-ER Range Score (FaDu tumour xenograft; (30 mpk) Q5D) | TGD-ER Range Score (FaDu tumour xenograft; 30 mpk BID + 10 Gy) | other results
10 to 500 nM | 10 to 500 nM | CN(C)C(=O)COc1cnc(N[C@H]2CC[C@@H](Oc3nc(N4CCOCC4)cc4ncccc34)CC2)nc1 [Compound 54, N,N-Dimethyl-2-((2-(((1s,4s)-4-((7-morpholino-1,6-naphthyridin-5-yl)oxy)cyclohexyl)amino)pyrimidin-5-yl)oxy)acetamide] | 10 to 500 nM | 10 to 500 nM |  |  |  | TGD-ER Range Score (FaDu tumour xenograft; 10 mpk + 10 Gy): B (1-2.5=B); TGD-ER Range Score (FaDu tumour xenograft; 30 mpk + 10 Gy): A (values>2.5=A); TGD-ER Range Score (FaDu tumour xenograft; 100 mpk + 10 Gy): B (1-2.5=B)
 |  | O=C(COc1cnc(N[C@H]2CC[C@@H](Oc3nc(N4CCOCC4)cc4ncccc34)CC2)nc1)N1CCOCC1 [Compound 61, 1-Morpholino-2-((2-(((1s,4s)-4-((7-morpholino-1,6-naphthyridin-5-yl)oxy)cyclohexyl)amino)pyrimidin-5-yl)oxy)ethan-1-one] |  |  | A (values>2.5=A) | C (<1=C) |  | 
10 to 500 nM | 10 to 500 nM | CN(C)CCOc1cnc(N[C@H]2CC[C@@H](Oc3nc(N4CCOCC4)cc4ncccc34)CC2)nc1 [Compound 64, 5-(2-(Dimethylamino)ethoxy)-N-((1s,4s)-4-((7-morpholino-1,6-naphthyridin-5-yl)oxy)cyclohexyl)pyrimidin-2-amine] | 10 to 500 nM | 10 to 500 nM |  |  |  | 
 |  | CN1CCN(CCOc2cnc(N[C@H]3CC[C@@H](Oc4nc(N5CCOCC5)cc5ncccc45)CC3)nc2)CC1 [Compound 69, 5-(2-(4-Methylpiperazin-1-yl)ethoxy)-N-((1s,4s)-4-((7-morpholino-1,6-naphthyridin-5-yl)oxy)cyclohexyl)pyrimidin-2-amine] |  |  | A (values>2.5=A) | C (<1=C) | B (1-2.5=B) | TGD-ER Range Score (FaDu tumour xenograft; 30 mpk + @4 h 10 Gy): C (<1=C); TGD-ER Range Score (FaDu tumour xenograft; 100 mpk + @4 h 10 Gy): B (1-2.5=B)
 |  | O=C(COc1cnc(N[C@H]2CC[C@@H](Oc3nc(N4CCOCC4)cc4ncccc34)CC2)nc1)N1CCC1 [Compound 75, 1-(Azetidin-1-yl)-2-((2-(((1s,4s)-4-((7-morpholino-1,6-naphthyridin-5-yl)oxy)cyclohexyl)amino)pyrimidin-5-yl)oxy)ethan-1-one] |  |  |  |  | B (1-2.5=B) | 
 |  | CN(C)C(=O)Cn1ccc2nc(N[C@H]3CC[C@@H](Oc4nc(N5CCOCC5)cc5ncccc45)CC3)ncc21 [Compound 86, N,N-Dimethyl-2-(2-(((1s,4s)-4-((7-morpholino-1,6-naphthyridin-5-yl)oxy)cyclohexyl)amino)-5H-pyrrolo[3,2-d]pyrimidin-5-yl)acetamide] |  |  | A (values>2.5=A) | B (1-2.5=B) | B (1-2.5=B) | 
 |  | O=C(O)c1cnc2cc(N3CCOCC3)nc(O[C@H]3CC[C@@H](n4ccnc4)CC3)c2c1 [Compound 165, 5-(((1s,4s)-4-(1H-imidazol-1-yl)cyclohexyl)oxy)-7-morpholino-1,6-naphthyridine-3-carboxylic acid] | 10000 to 100000 nM | 10000 to 100000 nM |  |  |  | 
1000 to 10000 nM | 1000 to 10000 nM | O=C(NO)c1cnc2cc(N3CCOCC3)nc(O[C@H]3CC[C@@H](n4ccnc4)CC3)c2c1 [Compound 172, 5-(((1s,4s)-4-(1H-imidazol-1-yl)cyclohexyl)oxy)-N-hydroxy-7-morpholino-1,6-naphthyridine-3-carboxamide] |  |  |  |  |  | 
 |  | CS(=O)(=O)NC(=O)c1cnc2cc(N3CCOCC3)nc(O[C@H]3CC[C@@H](n4ccnc4)CC3)c2c1 [Compound 175, 5-(((1s,4s)-4-(1H-imidazol-1-yl)cyclohexyl)oxy)-N-(methylsulfonyl)-7-morpholino-1,6-naphthyridine-3-carboxamide] | 10000 to 100000 nM | 10000 to 100000 nM |  |  |  | 
